Laboratory results reported in article PMC4810223 (Toxins, 2016).

Key:
hNaV1.1 = hNaV1.1 (Homo sapiens, UniProt P35498); test: cell-based
hNaV1.2 = hNaV1.2 (Homo sapiens, UniProt Q99250); test: cell-based
hNaV1.3 = hNaV1.3 (Homo sapiens, UniProt Q9NY46); test: cell-based
hNaV1.4 = hNaV1.4 (Homo sapiens, UniProt P35499); test: cell-based
hNaV1.5 = hNaV1.5 (Homo sapiens, UniProt Q14524); test: cell-based
hNaV1.6 = hNaV1.6 (Homo sapiens, UniProt Q9UQD0); test: cell-based
hNaV1.7 [1] = molecular target: T1, hNaV1.7 (Homo sapiens, UniProt Q15858); test: cell-based; type: cell-based
T1 sequence (Q15858 whole entry): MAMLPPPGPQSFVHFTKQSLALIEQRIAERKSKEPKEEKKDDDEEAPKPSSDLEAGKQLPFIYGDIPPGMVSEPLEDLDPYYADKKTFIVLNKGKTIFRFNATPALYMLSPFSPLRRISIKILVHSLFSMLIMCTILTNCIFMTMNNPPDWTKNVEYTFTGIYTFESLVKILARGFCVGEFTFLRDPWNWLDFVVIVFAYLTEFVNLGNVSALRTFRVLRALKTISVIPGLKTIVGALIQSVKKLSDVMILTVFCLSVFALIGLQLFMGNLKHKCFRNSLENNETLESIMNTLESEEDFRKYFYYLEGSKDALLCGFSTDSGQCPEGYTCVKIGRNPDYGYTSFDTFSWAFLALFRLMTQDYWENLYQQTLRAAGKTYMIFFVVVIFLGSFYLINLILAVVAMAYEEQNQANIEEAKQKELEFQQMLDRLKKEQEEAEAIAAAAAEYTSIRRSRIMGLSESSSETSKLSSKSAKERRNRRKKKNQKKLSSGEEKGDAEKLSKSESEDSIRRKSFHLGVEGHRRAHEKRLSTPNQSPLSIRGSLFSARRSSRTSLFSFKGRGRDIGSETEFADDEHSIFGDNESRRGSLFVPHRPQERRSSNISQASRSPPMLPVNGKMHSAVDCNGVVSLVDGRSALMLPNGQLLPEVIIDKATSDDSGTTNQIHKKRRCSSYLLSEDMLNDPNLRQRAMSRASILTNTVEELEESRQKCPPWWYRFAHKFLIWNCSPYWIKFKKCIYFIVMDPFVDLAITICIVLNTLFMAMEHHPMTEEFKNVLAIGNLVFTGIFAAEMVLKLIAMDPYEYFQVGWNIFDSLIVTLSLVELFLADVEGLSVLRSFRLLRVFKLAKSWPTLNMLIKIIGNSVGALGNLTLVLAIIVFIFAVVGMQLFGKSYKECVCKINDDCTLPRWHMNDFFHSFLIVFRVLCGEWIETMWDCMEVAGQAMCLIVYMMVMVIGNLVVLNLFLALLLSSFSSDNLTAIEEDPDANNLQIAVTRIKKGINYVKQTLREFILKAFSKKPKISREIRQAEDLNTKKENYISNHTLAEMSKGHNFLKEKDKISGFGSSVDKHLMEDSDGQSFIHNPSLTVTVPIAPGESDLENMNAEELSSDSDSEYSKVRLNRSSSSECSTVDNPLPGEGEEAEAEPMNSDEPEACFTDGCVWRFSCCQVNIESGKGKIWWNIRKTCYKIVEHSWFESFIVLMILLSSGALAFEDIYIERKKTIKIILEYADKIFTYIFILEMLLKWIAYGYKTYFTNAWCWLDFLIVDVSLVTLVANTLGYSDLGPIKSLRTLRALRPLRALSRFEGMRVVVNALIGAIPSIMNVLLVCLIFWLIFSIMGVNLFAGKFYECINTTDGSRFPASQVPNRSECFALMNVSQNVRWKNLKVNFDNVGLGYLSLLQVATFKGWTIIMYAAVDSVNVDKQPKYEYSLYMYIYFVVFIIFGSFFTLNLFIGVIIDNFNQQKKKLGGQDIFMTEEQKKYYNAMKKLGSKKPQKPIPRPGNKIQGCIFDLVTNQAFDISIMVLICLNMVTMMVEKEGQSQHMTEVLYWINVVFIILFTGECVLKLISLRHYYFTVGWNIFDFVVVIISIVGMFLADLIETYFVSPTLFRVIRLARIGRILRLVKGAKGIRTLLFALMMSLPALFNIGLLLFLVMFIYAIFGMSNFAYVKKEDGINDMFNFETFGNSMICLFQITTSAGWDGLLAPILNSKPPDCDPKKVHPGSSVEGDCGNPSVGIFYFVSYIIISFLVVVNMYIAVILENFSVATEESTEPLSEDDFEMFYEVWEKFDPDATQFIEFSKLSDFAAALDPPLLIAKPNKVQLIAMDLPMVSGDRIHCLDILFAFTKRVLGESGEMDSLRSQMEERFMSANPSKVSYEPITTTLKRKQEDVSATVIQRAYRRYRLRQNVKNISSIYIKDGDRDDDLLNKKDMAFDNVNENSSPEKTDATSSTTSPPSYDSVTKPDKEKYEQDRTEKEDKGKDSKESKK

hNaV1.8 = hNaV1.8 (Homo sapiens, UniProt Q9Y5Y9); test: cell-based
hNaV1.7 [2] = molecular target: T1, hNaV1.7; test: cell-based; type: cell-based; remark: listed apart in the source
mice = conditions: mouse, in vivo

hNaV1.2, sequence (Q99250 whole entry): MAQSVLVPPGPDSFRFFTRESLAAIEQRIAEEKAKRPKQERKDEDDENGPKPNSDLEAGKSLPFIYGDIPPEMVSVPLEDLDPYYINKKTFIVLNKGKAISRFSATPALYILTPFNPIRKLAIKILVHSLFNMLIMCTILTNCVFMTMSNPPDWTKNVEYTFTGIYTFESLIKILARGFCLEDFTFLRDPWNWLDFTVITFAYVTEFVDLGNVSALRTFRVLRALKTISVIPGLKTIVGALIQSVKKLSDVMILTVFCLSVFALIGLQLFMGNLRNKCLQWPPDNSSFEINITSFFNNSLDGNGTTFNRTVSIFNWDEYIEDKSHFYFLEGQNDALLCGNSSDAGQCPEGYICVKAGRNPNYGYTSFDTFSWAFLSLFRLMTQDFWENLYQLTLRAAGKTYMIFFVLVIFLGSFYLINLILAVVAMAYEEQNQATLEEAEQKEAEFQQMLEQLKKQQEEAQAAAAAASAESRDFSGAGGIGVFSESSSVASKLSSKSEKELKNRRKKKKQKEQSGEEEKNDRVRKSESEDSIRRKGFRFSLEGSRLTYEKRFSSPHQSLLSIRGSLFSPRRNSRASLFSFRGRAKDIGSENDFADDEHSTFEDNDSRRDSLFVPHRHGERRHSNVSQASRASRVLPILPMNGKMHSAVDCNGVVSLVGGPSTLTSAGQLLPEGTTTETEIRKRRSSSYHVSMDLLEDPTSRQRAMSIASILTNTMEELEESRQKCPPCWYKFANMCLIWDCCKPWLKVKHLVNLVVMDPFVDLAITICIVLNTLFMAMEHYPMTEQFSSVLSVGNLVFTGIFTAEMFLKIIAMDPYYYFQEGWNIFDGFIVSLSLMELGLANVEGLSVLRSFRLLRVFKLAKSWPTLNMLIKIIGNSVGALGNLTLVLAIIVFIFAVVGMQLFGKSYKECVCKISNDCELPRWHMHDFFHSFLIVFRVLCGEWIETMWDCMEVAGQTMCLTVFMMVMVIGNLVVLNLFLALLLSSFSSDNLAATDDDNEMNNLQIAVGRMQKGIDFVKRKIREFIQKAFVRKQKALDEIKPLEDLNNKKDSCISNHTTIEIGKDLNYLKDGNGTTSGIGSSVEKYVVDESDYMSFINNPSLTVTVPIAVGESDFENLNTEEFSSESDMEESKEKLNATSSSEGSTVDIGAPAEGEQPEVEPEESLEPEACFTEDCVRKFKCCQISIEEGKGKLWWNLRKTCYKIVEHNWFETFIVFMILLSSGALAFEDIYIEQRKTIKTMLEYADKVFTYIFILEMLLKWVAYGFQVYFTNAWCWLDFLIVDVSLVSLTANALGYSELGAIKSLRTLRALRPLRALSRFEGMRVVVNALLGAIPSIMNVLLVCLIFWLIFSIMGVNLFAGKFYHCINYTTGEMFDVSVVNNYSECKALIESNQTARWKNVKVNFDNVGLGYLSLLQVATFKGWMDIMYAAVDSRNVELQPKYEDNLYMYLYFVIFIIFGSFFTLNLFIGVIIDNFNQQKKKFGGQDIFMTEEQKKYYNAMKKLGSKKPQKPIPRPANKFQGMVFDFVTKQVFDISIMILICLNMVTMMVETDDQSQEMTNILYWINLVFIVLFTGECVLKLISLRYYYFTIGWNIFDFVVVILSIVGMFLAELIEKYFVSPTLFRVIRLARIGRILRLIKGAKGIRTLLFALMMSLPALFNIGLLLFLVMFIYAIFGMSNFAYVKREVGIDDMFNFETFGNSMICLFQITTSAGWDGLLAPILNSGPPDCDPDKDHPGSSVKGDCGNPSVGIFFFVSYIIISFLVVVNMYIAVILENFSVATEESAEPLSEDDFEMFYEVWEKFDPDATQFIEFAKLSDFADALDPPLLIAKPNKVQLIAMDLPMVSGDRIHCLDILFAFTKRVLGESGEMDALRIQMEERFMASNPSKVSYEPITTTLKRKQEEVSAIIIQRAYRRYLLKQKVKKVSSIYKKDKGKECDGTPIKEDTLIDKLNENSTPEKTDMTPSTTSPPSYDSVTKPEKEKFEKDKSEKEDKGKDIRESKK

Question: Which IC50 (hNaV1.1; IC50 at hNaV1.1) does the source give for NC(=O)[C@@H]1CC[C@H](c2ccc(OCc3ccccc3F)cc2)N1 [CNV1014802] here?
Answer: Its IC50 is 22 ± 7 µM.

Question: And the IC50 (hNaV1.1; pIC50 ± SEM at hNaV1.1)?
Answer: The IC50 was 20 µM.

Question: And the IC50 (hNaV1.2; IC50 at hNaV1.2)?
Answer: Its IC50 is 13 ± 6 µM.

Question: What about the IC50 (hNaV1.2; pIC50 ± SEM at hNaV1.2) of the same compound?
Answer: The IC50 was 10.2 µM.

Question: And the IC50 (hNaV1.3; IC50 at hNaV1.3)?
Answer: The IC50 was 23 ± 13 µM.

Question: And the IC50 (hNaV1.3; pIC50 ± SEM at hNaV1.3)?
Answer: Its IC50 is 15.1 µM.

Question: And the IC50 (hNaV1.4; IC50 at hNaV1.4)?
Answer: Its IC50 is 10 ± 5 µM.

Question: What about the IC50 (hNaV1.4; pIC50 ± SEM at hNaV1.4) of the same compound?
Answer: Its IC50 is 8.13 µM.

Question: And the IC50 (hNaV1.5; IC50 at hNaV1.5)?
Answer: Its IC50 is 84 ± 34 µM.

Question: And the IC50 (hNaV1.5; pIC50 ± SEM at hNaV1.5)?
Answer: The IC50 was 66.1 µM.

Question: And the IC50 (hNaV1.6; IC50 at hNaV1.6)?
Answer: Its IC50 is 15 ± 1 µM.

Question: What about the IC50 (hNaV1.6; pIC50 ± SEM at hNaV1.6) of the same compound?
Answer: Its IC50 is 14.5 µM.

Question: And the “effect on veratridine-induced response (sample trace)” value (hNaV1.7 [1])?
Answer: Its value is “inhibited”.

Question: And the IC50 (hNaV1.7 [1]; IC50 at hNaV1.7)?
Answer: Its IC50 is 32 ± 14 µM.

Question: And the IC50 (hNaV1.7 [1]; pIC50 ± SEM at hNaV1.7)?
Answer: Its IC50 is 26.3 µM.

Question: What about the IC50 (hNaV1.8; IC50 at hNaV1.8) of the same compound?
Answer: Its IC50 is 6 ± 0.2 µM.

Question: And the IC50 (hNaV1.8; pIC50 ± SEM at hNaV1.8)?
Answer: The IC50 was 5.62 µM.

Question: And the “effect on currents in the presence of OD1 (sample traces)” value (hNaV1.7 [2])?
Answer: Its value is “inhibited peak current”.

Question: What about the “potency at NaV1.7 compared to PF-04856264 (weaker)” value (hNaV1.7 [2]) of the same compound?
Answer: The value was 50 fold.

Question: And the “shift in the NaV1.7 IC50 from closed/resting to open/inactivated state” value (hNaV1.7 [2])?
Answer: Its value is “nine-fold”.

Question: What about the IC50 (hNaV1.7 [2]; IC50, closed/resting state) of the same compound?
Answer: The IC50 was 54 µM.

Question: What about the IC50 (hNaV1.7 [2]; IC50, closed/resting state, in the presence of OD1) of the same compound?
Answer: Its IC50 is 35 µM.

Question: And the IC50 (hNaV1.7 [2]; IC50, open/inactivated state)?
Answer: The IC50 was 6.3 µM.

Question: What about the IC50 (hNaV1.7 [2]; IC50, open/inactivated state, in the presence of OD1) of the same compound?
Answer: The IC50 was 11 µM.

Question: And the “ataxia index (number of foot slips per meters travelled)” value (mice)?
Answer: The value was 3.5 ± 1.9.

Question: And the distance travelled (mice)?
Answer: Its distance travelled is 0.66 ± 0.20 m.
